Where two headings read alike, the source gives them in different places.
Legend:
[1] = molecular target: GDP-bound KRAS wild-type protein (Homo sapiens, UniProt P01116); assay: Binding to KRAS by surface plasmon resonance (SPR), Single Cycle Kinetics; settings: GDP-bound KRAS wild-type protein, read-out: KRAS KD
[2] = molecular target: GDP-bound NRAS wild-type protein (Homo sapiens, UniProt P01111); assay: Binding to NRAS by surface plasmon resonance (SPR), Single Cycle Kinetics; settings: for NRAS/KRAS (ratio of KD value with respect to GDP-bound NRAS wild-type protein to KD value with respect to KRAS): SPR KD ratio NRAS/KRAS, class symbols; for NRAS/KRAS (ratio of KD value for NRAS to KD value for KRAS): SPR, GDP-bound NRAS wild-type protein vs GDP-bound KRAS wild-type protein
[3] = molecular target: GDP-bound HRAS wild-type protein (Homo sapiens, UniProt P01112); assay: Binding to HRAS by surface plasmon resonance (SPR), Single Cycle Kinetics; settings: for HRAS/KRAS (ratio of KD value with respect to GDP-bound HRAS wild-type protein to KD value with respect to KRAS): SPR KD ratio HRAS/KRAS, class symbols; for HRAS/KRAS (ratio of KD value for HRAS to KD value for KRAS): SPR, GDP-bound HRAS wild-type protein vs GDP-bound KRAS wild-type protein
[4] = SPR Single Cycle Kinetics, 1:1 binding model

GDP-bound KRAS wild-type protein, sequence (P01116 whole entry): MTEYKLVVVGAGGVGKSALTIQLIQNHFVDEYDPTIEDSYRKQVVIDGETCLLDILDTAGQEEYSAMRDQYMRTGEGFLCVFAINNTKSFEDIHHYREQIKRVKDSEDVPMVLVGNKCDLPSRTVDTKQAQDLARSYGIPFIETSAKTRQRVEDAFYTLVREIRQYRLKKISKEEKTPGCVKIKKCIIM
GDP-bound HRAS wild-type protein, sequence (P01112 whole entry): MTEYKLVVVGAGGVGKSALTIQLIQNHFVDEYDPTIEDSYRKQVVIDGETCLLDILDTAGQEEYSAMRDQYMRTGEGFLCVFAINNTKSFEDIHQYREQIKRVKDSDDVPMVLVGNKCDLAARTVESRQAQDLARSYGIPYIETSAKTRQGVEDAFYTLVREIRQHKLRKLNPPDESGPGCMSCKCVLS
GDP-bound NRAS wild-type protein, sequence (P01111 whole entry): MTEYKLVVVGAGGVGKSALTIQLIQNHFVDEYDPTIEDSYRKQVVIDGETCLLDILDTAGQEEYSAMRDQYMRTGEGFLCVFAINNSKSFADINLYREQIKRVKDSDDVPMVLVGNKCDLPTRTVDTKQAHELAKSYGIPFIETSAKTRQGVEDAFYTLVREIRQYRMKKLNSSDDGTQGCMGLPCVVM

| Structure (SMILES) | Kd [1, 4] | NRAS/KRAS (ratio of KD value with respect to GDP-bound NRAS wild-type protein to KD value with respect to KRAS) [2] | HRAS/KRAS (ratio of KD value with respect to GDP-bound HRAS wild-type protein to KD value with respect to KRAS) [3] | Kd ([1]; SPR, Single Cycle Kinetics) | NRAS/KRAS (ratio of KD value for NRAS to KD value for KRAS) [2] | HRAS/KRAS (ratio of KD value for HRAS to KD value for KRAS) [3] |
| --- | --- | --- | --- | --- | --- | --- |
| CCC(CC)[C@H]1C(=O)N(C)[C@H](C(=O)N(C)C)CC(=O)N(C)[C@@H](COC)C(=O)N[C@@H]([C@@H](C)CC)C(=O)N(C)CC(=O)N(C)[C@H]2C/C=C\CCN(C2=O)[C@@H](Cc2ccc(C)cc2)C(=O)N(C)CC(=O)N[C@@H](CCc2cc(F)c(C(F)(F)F)c(F)c2)C(=O)N2CC3(CC3)C[C@H]2C(=O)NC2(CC(C)(C)C2)C(=O)N1C [PP2963] | 390 pM | AA (a compound having 20 or more is denoted as AA) | A (a compound having 10 or more and less than 20 is denoted as A) |  |  |  |
| CCC[C@H]1C(=O)N[C@@H]([C@@H](C)CC)C(=O)N(C)CC(=O)N(C)[C@H]2C/C=C\CCN(C2=O)[C@@H](Cc2ccc(C(F)(F)F)cc2)C(=O)N(C)CC(=O)N[C@@H](CCc2ccc(C(F)(F)F)c(Cl)c2)C(=O)N2CCCCC[C@H]2C(=O)NC2(CC(C)(C)C2)C(=O)N(C)[C@@H](C(CC)CC)C(=O)N(C)[C@H](C(=O)N(C)C)CC(=O)N1C [PP2964] | 850 pM | AA (a compound having 20 or more is denoted as AA) | A (a compound having 10 or more and less than 20 is denoted as A) |  |  |  |
| CCC(CC)[C@H]1C(=O)N(C)[C@H](C(=O)N(C)C)CC(=O)N(C)[C@@H](COC)C(=O)N[C@@H]([C@@H](C)CC)C(=O)N(C)CC(=O)N(C)[C@H]2C/C=C\CCN(C2=O)[C@@H](Cc2ccc(C(F)(F)F)cc2)C(=O)N(C)CC(=O)N[C@@H](CCc2ccc(C(F)(F)F)c(Cl)c2)C(=O)N2CC3(CC3)C[C@H]2C(=O)NC2(CC(C)(C)C2)C(=O)N1C [PP2965] | 470 pM | AA (a compound having 20 or more is denoted as AA) | A (a compound having 10 or more and less than 20 is denoted as A) |  |  |  |
| CCC[C@H]1C(=O)N[C@@H]([C@@H](C)CC)C(=O)N(C)CC(=O)N(C)[C@H]2C/C=C\CCN(C2=O)[C@@H](Cc2ccc(C(F)(F)F)cc2)C(=O)N(C)CC(=O)N[C@@H](CCc2ccc(C(F)(F)F)c(OC)c2)C(=O)N2CCCCC[C@H]2C(=O)NC2(CC(C)(C)C2)C(=O)N(C)[C@@H](C(CC)CC)C(=O)N(C)[C@H](C(=O)N(C)C)CC(=O)N1C [PP2968] | 550 pM | AA (a compound having 20 or more is denoted as AA) | A (a compound having 10 or more and less than 20 is denoted as A) |  |  |  |
| CCC[C@H]1C(=O)N[C@@H]([C@@H](C)CC)C(=O)N(C)CC(=O)N(C)[C@H]2C/C=C\CCN(C2=O)[C@@H](Cc2ccc(C(F)(F)F)cc2)C(=O)N(C)CC(=O)N[C@@H](CCc2ccc(C(F)(F)F)c(Cl)c2)C(=O)N2C[C@H](OCC)C[C@H]2C(=O)NC2(CC(C)(C)C2)C(=O)N(C)[C@@H](CC(C)(C)C)C(=O)N(C)[C@H](C(=O)N(C)C)CC(=O)N1C [PP2969] | 73 pM | AA (a compound having 20 or more is denoted as AA) | A (a compound having 10 or more and less than 20 is denoted as A) |  |  |  |
| CCC[C@H]1C(=O)N[C@@H](C2CCCC2)C(=O)N(C)CC(=O)N(C)[C@H]2C/C=C\CCN(C2=O)[C@@H](Cc2ccc(C(F)(F)F)cc2)C(=O)N(C)CC(=O)N[C@@H](CCc2ccc(C(F)(F)F)c(Cl)c2)C(=O)N2C[C@H](OCC)C[C@H]2C(=O)NC2(CC(C)(C)C2)C(=O)N(C)[C@@H](CC(C)(C)C)C(=O)N(C)[C@H](C(=O)N(C)C)CC(=O)N1C [PP2971] |  |  |  | 190 pM | A (a compound having 10 or more and less than 20 is denoted as A) | A (a compound having 10 or more and less than 20 is denoted as A) |
| CCC[C@H]1C(=O)N[C@@H]([C@@H](C)CC)C(=O)N(C)CC(=O)N(C)[C@H]2C/C=C\CCN(C2=O)[C@@H](Cc2ccc(C(F)(F)F)cc2)C(=O)N(C)CC(=O)N[C@@H](CCc2ccc(C(F)(F)F)c(Cl)c2)C(=O)N2C[C@H](OCC)C[C@H]2C(=O)NC2(CC(C)(C)C2)C(=O)N(C)[C@@H]([C@@H](C)CC)C(=O)N(C)[C@H](C(=O)N(C)C)CC(=O)N1C [PP2973] |  |  |  | 180 pM | A (a compound having 10 or more and less than 20 is denoted as A) | A (a compound having 10 or more and less than 20 is denoted as A) |

Source: patent US20240158446A1, “CYCLIC COMPOUND HAVING SELECTIVE INHIBITORY ACTION ON KRAS OVER HRAS AND NRAS” (CHUGAI SEIYAKU KABUSHIKI KAISHA, priority 2021, published 2024)
